According to ChEMBL document CHEMBL1201862, “PubChem BioAssay data set” (2004):
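Five concentrations, 48 hours, 96-well plates. The concentration for 50% growth inhibition is given as GI50.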 Calls of active or inactive are those of the source. Cut-off read from the data, not from the text of the source: active = GI50 up to about 1.1 µM and inactive = higher.

Key:
Test in all cases: growth of human tumour cells (NCI), 48 h
[1] = system: A549
[2] = system: Malme-3M
[3] = system: SW-620
[4] = system: UO-31
[5] = system: U-251
[6] = system: HCC 2998
[7] = system: ACHN
[8] = system: HCT-15
[9] = system: SK-MEL-2
[10] = system: A498
[11] = system: UACC-257
[12] = system: 786-0
[13] = system: SF-295
[14] = system: HT-29
[15] = system: RPMI-8226
[16] = system: LOX IMVI
[17] = system: NCI-H226

| Compound | GI50 [1] | GI50 [2] | GI50 [3] | GI50 [4] | GI50 [5] | GI50 [6] | GI50 [7] | GI50 [8] | GI50 [9] | GI50 [10] | GI50 [11] | GI50 [12] | GI50 [13] | GI50 [14] | GI50 [15] | GI50 [16] | GI50 [17] |
| --- | --- | --- | --- | --- | --- | --- | --- | --- | --- | --- | --- | --- | --- | --- | --- | --- | --- |
| CC#COP(=O)(OCC)OCC | > 100 µM (inactive) | > 100 µM (inactive) | > 100 µM (inactive) | > 100 µM (inactive) | > 100 µM (inactive) | > 100 µM (inactive) | > 100 µM (inactive) | > 100 µM | > 100 µM (inactive) | 39.5 µM (inactive) | > 100 µM (inactive) | > 100 µM (inactive) | > 100 µM (inactive) | > 100 µM (inactive) | 85.1 µM (inactive) | > 100 µM (inactive) | 23.9 µM (inactive) |
| COC(=O)C(Cc1nc2ccc(Cl)cc2nc1O)/C(=N\N)C(=O)Nc1cc(C)c(Cl)cc1S(=O)(=O)O (centres undefined) | > 100 µM (inactive) | > 100 µM (inactive) | > 10 µM (inactive) | > 100 µM (inactive) | > 100 µM (inactive) | > 100 µM (inactive) | > 100 µM (inactive) | > 100 µM | > 100 µM (inactive) | 70.3 µM (inactive) | > 100 µM (inactive) | > 100 µM (inactive) | > 100 µM (inactive) | > 100 µM (inactive) | 88.3 µM (inactive) | > 100 µM (inactive) | 47.1 µM (inactive) |
| CC(C)(C)C1=CC(=C2C(=O)C(=O)c3ccccc3C2=O)C=C(C(C)(C)C)C1=O | > 100 µM (inactive) | 26.5 µM (inactive) | 36 µM (inactive) | 43.7 µM (inactive) | > 100 µM (inactive) | > 100 µM (inactive) | 83.9 µM (inactive) | 35.5 µM | > 100 µM (inactive) | < 0.01 µM (active) | 29.4 µM (inactive) | 34.5 µM (inactive) | > 100 µM (inactive) | > 100 µM (inactive) | 23.8 µM (inactive) | 37.1 µM (inactive) |  |
| C#Cc1ccccc1N1C(=O)C=CC1=O | > 100 µM (inactive) | > 100 µM (inactive) | > 100 µM (inactive) | > 100 µM (inactive) | > 100 µM (inactive) |  | > 100 µM (inactive) |  | > 100 µM (inactive) | > 100 µM (inactive) | > 100 µM (inactive) | > 100 µM (inactive) | > 100 µM (inactive) | > 100 µM (inactive) | > 100 µM (inactive) |  | > 100 µM (inactive) |
| C/C(=C1/CCCC2(N=NCC2c2ccccc2)C1=O)c1ccccc1 (centres undefined) | 20.4 µM (inactive) | 21 µM (inactive) | 69.8 µM (inactive) | 20.9 µM (inactive) | 23.8 µM (inactive) | 38.2 µM (inactive) | 31.8 µM (inactive) | 35.1 µM | 19.1 µM (inactive) |  | 22.1 µM (inactive) | 46.7 µM (inactive) | 30.9 µM (inactive) | 20.5 µM (inactive) | 20 µM (inactive) | 32.8 µM (inactive) | 16 µM (inactive) |
| Cc1ccc(NC(=O)C(=O)C(C2C(C)CC(=O)C2CC(=O)O)[N+](=O)[O-])cc1 (centres undefined) | > 100 µM (inactive) | > 100 µM (inactive) | > 100 µM (inactive) | > 100 µM (inactive) | > 100 µM (inactive) | > 100 µM (inactive) | > 100 µM (inactive) | > 100 µM | > 100 µM (inactive) | > 100 µM (inactive) | > 100 µM (inactive) | > 100 µM (inactive) | > 100 µM (inactive) | > 100 µM (inactive) | > 100 µM (inactive) | > 100 µM (inactive) | > 100 µM (inactive) |
| Fc1cccc2c1cc1ccc3cccc4ccc2c1c34 | > 100 µM (inactive) | > 100 µM (inactive) | > 100 µM (inactive) | > 100 µM (inactive) | > 100 µM (inactive) | > 100 µM (inactive) | > 100 µM (inactive) |  | > 100 µM (inactive) | > 100 µM (inactive) | 95.7 µM (inactive) | > 100 µM (inactive) | > 100 µM (inactive) | > 100 µM (inactive) |  | > 100 µM (inactive) | > 100 µM (inactive) |
| Cc1nc2cc(N)c(F)cc2[nH]1 | > 100 µM (inactive) | > 100 µM (inactive) | > 100 µM (inactive) | > 100 µM (inactive) | > 100 µM (inactive) |  | > 100 µM (inactive) |  | > 100 µM (inactive) | > 100 µM (inactive) | > 100 µM (inactive) | > 100 µM (inactive) | > 100 µM (inactive) | > 100 µM (inactive) |  | > 100 µM (inactive) | > 100 µM (inactive) |
| COc1ccc(C(=O)O/N=C2\CCCC\C2=C/c2ccccc2)cc1 | > 100 µM (inactive) |  | > 100 µM (inactive) | > 100 µM (inactive) | 57.3 µM (inactive) | > 100 µM (inactive) | 67.3 µM (inactive) | > 100 µM |  | 74.8 µM (inactive) |  | 33.8 µM (inactive) |  | > 100 µM (inactive) |  | > 100 µM (inactive) |  |
| CC(C)C(=O)N[C@@H](C)C(=O)N(Cc1ccc2ccccc2c1)N=O | 82.4 µM (inactive) | > 100 µM (inactive) | 55.5 µM (inactive) | 30 µM (inactive) | 72.4 µM (inactive) | > 100 µM (inactive) | > 100 µM (inactive) | 77.4 µM | 98.9 µM (inactive) | 58.2 µM (inactive) | > 100 µM (inactive) | > 100 µM (inactive) | 48.6 µM (inactive) | > 100 µM (inactive) | 43.6 µM (inactive) | 46 µM (inactive) |  |
| O=C(Nc1nc2ncn(CCO)c2c(=S)[nH]1)c1ccccc1 | > 100 µM (inactive) | > 100 µM (inactive) | > 100 µM (inactive) | > 100 µM (inactive) | > 100 µM (inactive) |  | > 100 µM (inactive) | > 100 µM | > 100 µM (inactive) | > 100 µM (inactive) | > 100 µM (inactive) | > 100 µM (inactive) | > 100 µM (inactive) | > 100 µM (inactive) | > 100 µM (inactive) | > 100 µM (inactive) | > 100 µM (inactive) |
| CCOC(=O)C1N(S(=O)(=O)c2ccc(C)cc2)CCC12c1ccccc1NC2c1ccc(OC)c(OC)c1 (centres undefined) | > 100 µM (inactive) | > 100 µM (inactive) | 27.4 µM (inactive) | > 100 µM (inactive) | > 100 µM (inactive) | > 100 µM (inactive) | > 100 µM (inactive) | > 100 µM |  | > 100 µM (inactive) | > 100 µM (inactive) | > 100 µM (inactive) | > 100 µM (inactive) | > 100 µM (inactive) | 13.9 µM (inactive) | > 100 µM (inactive) | > 100 µM (inactive) |
| O=C1C=C(O)C(=Cc2c(O)cc(O)cc2O)C(O)=C1 | > 100 µM (inactive) | > 100 µM (inactive) | > 100 µM (inactive) | > 100 µM (inactive) | > 100 µM (inactive) | > 100 µM (inactive) |  | > 100 µM | > 100 µM (inactive) | > 100 µM (inactive) | > 100 µM (inactive) | > 100 µM (inactive) | > 100 µM (inactive) | > 100 µM (inactive) | > 100 µM (inactive) | > 100 µM (inactive) | > 100 µM (inactive) |
| O=C1NC2=C(CCCCC/C2=N\O)C12CCCCCC2 | > 100 µM (inactive) | > 100 µM (inactive) | > 100 µM (inactive) | > 100 µM (inactive) | > 100 µM (inactive) |  | > 100 µM (inactive) | > 100 µM | > 100 µM (inactive) | > 100 µM (inactive) | > 100 µM (inactive) | > 100 µM (inactive) | > 100 µM (inactive) | > 100 µM (inactive) | > 100 µM (inactive) | > 100 µM (inactive) |  |
| COC(=O)c1nn(-c2ccccc2)c(=O)cc1N=[N+]=[N-] | > 100 µM (inactive) | > 100 µM (inactive) | > 100 µM (inactive) | > 100 µM (inactive) | > 100 µM (inactive) | > 100 µM (inactive) | > 100 µM (inactive) | > 100 µM |  | 94 µM (inactive) | > 100 µM (inactive) | > 100 µM (inactive) | > 100 µM (inactive) | > 100 µM (inactive) | > 100 µM (inactive) | > 100 µM (inactive) | > 100 µM (inactive) |
| CCOC(=O)C(OCC1CC=CCC1)Sc1ccccc1 (centres undefined) | > 100 µM (inactive) | > 100 µM (inactive) | > 100 µM (inactive) | > 100 µM (inactive) | > 100 µM (inactive) | > 100 µM (inactive) | > 100 µM (inactive) | > 100 µM | > 100 µM (inactive) | > 100 µM (inactive) | > 100 µM (inactive) | > 100 µM (inactive) | > 100 µM (inactive) | > 100 µM (inactive) | > 100 µM (inactive) | > 100 µM (inactive) |  |
| CCCC(=O)Nc1ccc(O)c2c1C1CCCCCC21 (centres undefined) | > 100 µM (inactive) | > 100 µM (inactive) | > 100 µM (inactive) | 63.2 µM (inactive) | > 100 µM (inactive) |  | 71.8 µM (inactive) | 74 µM | > 100 µM (inactive) |  | 46.7 µM (inactive) | > 100 µM (inactive) | 50.2 µM (inactive) | > 100 µM (inactive) | 63.1 µM (inactive) | > 100 µM (inactive) | > 100 µM (inactive) |
| CC(C)NC(C)C(C)c1ccccc1 (centres undefined) | > 100 µM (inactive) | > 100 µM (inactive) | > 100 µM (inactive) | > 100 µM (inactive) | > 100 µM (inactive) | > 100 µM (inactive) | > 100 µM (inactive) |  | > 100 µM (inactive) | > 100 µM (inactive) | > 100 µM (inactive) | > 100 µM (inactive) | > 100 µM (inactive) | > 100 µM (inactive) | > 100 µM (inactive) | > 100 µM (inactive) | > 100 µM (inactive) |
